Laboratory results from US11434205B2, “Substituted imidazole carboxylate derivatives and the use thereof” (priority 2018, dated 2022).
Where two headings read alike, the source gives them in different places.

Tests used:
rats [1] = assay: Loss of righting reflexes (LORR) assay in rats, ED50 by up and down method; type: in vivo, rat; details: tail vein, class symbols; for ED50: Rattus norvegicus
How it was run: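 ED50 obtained by up-and-down dosing, with righting-reflex loss over 30 s counted as general anesthesia. Compounds injected into the tail vein (0.1 mL/s) of male Sprague-Dawley rats weighing 250-300 g.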

rats [2] = assay: Pharmacological characteristics at equivalent doses (2×ED50) in rats; details: 2×ED50, tail vein; for Adverse reactions: Red urine (incidence): DMSO solution (DMSO alone 10/10); for Onset time: time of LORR
How it was run: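 Anesthesia onset, recorded as time of LORR, was measured after a 2×ED50 tail-vein injection (0.6 mL, 0.1 mL/s). Animals were male Sprague-Dawley rats of 250-300 g, n=8.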

rats [3] = details: for Adverse reactions: Tremor (incidence): continuous infusion 2×MIR
Procedure: Pharmacological Effects of the Compounds on Continuous Infusion in Rats
Adult male Sprague-Dawley rats with body weight ranging from 250 to 300 gm were selected for continuous infusion test. […] Time to recovery of righting reflex from stopping infusion, and time to fully awake from stopping infusion were recorded.

[4] = test system: secretion of corticosterone, H295R cell line; assay: cells; type: cell-based; details: for EC50: read-out: EC50 (Corticosterone)
Procedure: (§1) The Effects of the Compounds on Adrenocortical Function In Vitro Test
(§2) Then secretion of the cortisol and corticosterone in the supernatant, was measured using HPLC-MS/MS method to determine whether the compounds of the present invention had adrenotoxic potential.

[5] = test system: secretion of cortisol, H295R cell line; assay: cells; type: cell-based; details: for EC50: read-out: EC50 (Cortisol)
Procedure: as §1, §2

rats [6] = type: in vivo, rat; details: rats of the MAP/HR figures, 2×ED50, tail vein
rats [7] = test system: rats
Procedure: Adult male Sprague-Dawley rats (250-300 g) were selected for the experiment. […] The anesthesia effects of the compounds were assessed in rats using a LORR assay and a period >30 s was considered as an indicator of general anesthesia. Then the up and down method was used to determine 50% effective dose (ED50). The drugs were administered through the tail vein of rats in a volume of 0.6 mL and at a rate of 0.1 mL/s.

rats [8] = type: in vivo, rat; details: rats of the MAP/HR figures, 2×ED50, tail vein; same value in min
How it was run: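 Hemodynamic stability judged from mean arterial pressure and heart rate, recorded at 15 s intervals over 30 min pre- and post-dose. Dosing was through a tail-vein indwelling catheter in rats carrying implanted aortic/ventricular catheters and ECG wires, operated ≥1 week earlier.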

[9] = continuous tail vein infusion at 2×MIR, LORR maintained 1 hour, Table E4
[10] = H295R cell line, 0.1-10000 nM, HPLC-MS/MS, Table E3
[11] = continuous tail vein infusion at 2×MIR, LORR maintained 1 hour, Table C4
[12] = emulsion, continuous infusion at 2×MIR
[13] = continuous tail vein infusion at 2×MIR, LORR maintained 1 hour, Table D4
[14] = H295R cell line, 0.1-10000 nM, HPLC-MS/MS, Table D3

SMILES	Righting reflex duration (rats [2]) [min]	Adverse reactions: Red urine (incidence) (rats [2])	Onset time (rats [2]) [min]	recovery time of the test animals' righting reflex (rats [6]) [s]	Approximate therapeutic index (rats [7])	Minimal lethal dose (rats [7]) [mg/kg]	recovery time of the test animals' righting reflex (rats [8]) [min]	ED50 (rats [1]) [mg/kg]	EC50 ([4]; Homo sapiens, NCI-H295R) [nM]	EC50 ([5]; Homo sapiens, NCI-H295R) [nM]	Recovery time after stopping infusion (rats [3]; after 1 hour infusion at 2×MIR) [min]	Adverse reactions: Tremor (incidence) (rats [3])	Onset time (rats [3]; [12]) [min]	also measured
C[C@H](c1ccccc1)n1cnc(F)c1C(=O)OC1(C)COC1 [Compound E38]	1.96 ± 1.39	(8/8)	0.25 ± 0.13	122	>20	>7	2.03	–	–	–	–	–	–	ED50 (mg/kg) (rats [1]): B (B means that the measured ED50 is in the range of 0.10-0.50 mg/kg (excluding 0.10 mg/kg, including 0.50 mg/kg).); Sedation duration (mg/kg) (rats [2]): 4.96 ± 1.66; Onset time (rats [3]; [9]): 2 to 3 min; Recovery time after stopping infusion (rats [3]; [9]): 8 to 13 min; Types and incidence of adverse reactions (rats [3]; [9]): Tremor (3/6); Corticosterone as an indicator to determine the presence of inhibition [4, 10]: 0; EC50 [4, 10]: > 10000 nM; Cortisol as an indicator to determine the presence of inhibition [5, 10]: 0; EC50 [5, 10]: > 10000 nM
CCC(CC)OC(=O)c1cncn1[C@H](C)c1ccccc1 [Compound C24]	2.21 ± 1.28	urine (8/8)	0.49 ± 0.15	135	>11	>1	2.25	0.01 to 0.1	> 1000	> 1000	–	–	–	Adverse reactions: Convulsions (incidence) (rats [2]): Convulsions (1/8), Red; Onset time (rats [3]; [11]): 3 to 4 min; Recovery time after stopping infusion (rats [3]; [11]): 9 to 13 min; Types and incidence of adverse reactions (rats [3]; [11]): Tremor (1/6); Corticosterone as an indicator to determine the presence of inhibition ([4]; H295R, Table C3): 0; Cortisol as an indicator to determine the presence of inhibition ([5]; H295R, Table C3): 0
C[C@H](c1ccccc1)n1cncc1C(=O)OCC1(C)COC1 [Compound B5]	3.98 ± 1.34	Red urine (8/8)	0.11 ± 0.02	255	>11	>10	4.25	0.1 to 0.5	> 10000	> 1000	12 to 14	Tremor (2/6)	3 to 4	Corticosterone as an indicator to determine the presence of inhibition ([4]; H295R, Table B3): 0; Cortisol as an indicator to determine the presence of inhibition ([5]; H295R, Table B3): 0
C[C@H](c1ccccc1)n1cncc1C(=O)OCCC1CCC1 [Compound A18]	4.77 ± 1.73	Red urine (8/8)	0.20 ± 0.09	273	>22	>5	4.55	0.1 to 0.5	> 1000	> 1000	11 to 15	Tremor (5/6)	3 to 4	Corticosterone as an indicator to determine the presence of inhibition ([4]; H295R, Table A3): 0; Cortisol as an indicator to determine the presence of inhibition ([5]; H295R, Table A3): 0
C=CC#CC(C)(C)OC(=O)c1cncn1[C@H](C)c1ccccc1 [Compound D37]	3.09 ± 2.03	Red urine (8/8)	0.24 ± 0.11	165	>13	>10	2.75	0.5 to 1	> 1000	> 1000	–	–	–	Onset time (rats [3]; [13]): 2 to 3 min; Recovery time after stopping infusion (rats [3]; [13]): 12 to 18 min; Types and incidence of adverse reactions (rats [3]; [13]): Tremor (4/6); Corticosterone as an indicator to determine the presence of inhibition [4, 14]: 0; Cortisol as an indicator to determine the presence of inhibition [5, 14]: 0
C/C=C/C1(OC(=O)c2cncn2[C@H](C)c2ccccc2)COC1 [Compound D42]	2.50 ± 1.18	Red urine (8/8)	0.13 ± 0.02	323	>12	>9	5.38	0.5 to 1	> 1000	> 1000	–	–	–	Onset time (rats [3]; [13]): 3 to 4 min; Recovery time after stopping infusion (rats [3]; [13]): 12 to 16 min; Types and incidence of adverse reactions (rats [3]; [13]): Tremor (6/6); Corticosterone as an indicator to determine the presence of inhibition [4, 14]: 0; Cortisol as an indicator to determine the presence of inhibition [5, 14]: 0
C[C@H](c1ccccc1)n1cncc1C(=O)OCC1CCC1 [Compound A8]	2.25 ± 2.64	Red urine (8/8)	0.34 ± 0.21	129	>10	>2	2.15	0.1 to 0.5	> 1000	> 1000	9 to 14	Tremor (1/6)	3 to 4	Corticosterone as an indicator to determine the presence of inhibition ([4]; H295R, Table A3): 0; Cortisol as an indicator to determine the presence of inhibition ([5]; H295R, Table A3): 0
COCC1(COC(=O)c2c(F)ncn2[C@H](C)c2ccccc2)CCC1 [Compound E2]	2.20 ± 1.11	(8/8)	0.23 ± 0.07	129	>25	>5	2.15	0.1 to 0.5	> 10000	> 10000	–	–	–	Onset time (rats [3]; [9]): 3 to 4 min; Recovery time after stopping infusion (rats [3]; [9]): 11 to 13 min; Types and incidence of adverse reactions (rats [3]; [9]): Tremor (2/6); Corticosterone as an indicator to determine the presence of inhibition [4, 10]: 0; Cortisol as an indicator to determine the presence of inhibition [5, 10]: 0
CC(OC(=O)c1cncn1[C@H](C)c1ccccc1)C1CC1 (stereo partly shown) [Compound A16]	2.63 ± 1.20	8/8	0.16 ± 0.07	167	>33	>10	2.78	0.1 to 0.5	> 1000	> 1000	12 to 14	Tremor (3/6)	2 to 3	Adverse reactions: Tremor (incidence) (rats [2]; animals affected/animals): 2/8; Corticosterone as an indicator to determine the presence of inhibition ([4]; H295R, Table A3): 0; Cortisol as an indicator to determine the presence of inhibition ([5]; H295R, Table A3): 0
CC#CC1(OC(=O)c2cncn2[C@H](C)c2ccccc2)CCCCC1 [Compound D40]	1.78 ± 1.94	Red urine (8/8)	0.73 ± 0.43	441	>16	>4	7.35	0.1 to 0.5	> 1000	> 1000	–	–	–	Adverse reactions: Hindlimb rigidity (incidence) (rats [2]): Hindlimb rigidity (1/8),; Onset time (rats [3]; [13]): 2 to 3 min; Recovery time after stopping infusion (rats [3]; [13]): 10 to 15 min; Types and incidence of adverse reactions (rats [3]; [13]): Tremor (5/6); Corticosterone as an indicator to determine the presence of inhibition [4, 14]: 0; Cortisol as an indicator to determine the presence of inhibition [5, 14]: 0
CSCCOC(=O)c1cncn1[C@H](C)c1ccccc1 [Compound C27]	3.06 ± 1.50	Red urine (8/8)	0.12 ± 0.07	186	>11	>9	3.1	0.5 to 1	> 1000	> 1000	–	–	–	Onset time (rats [3]; [11]): 3 to 4 min; Recovery time after stopping infusion (rats [3]; [11]): 10 to 11 min; Types and incidence of adverse reactions (rats [3]; [11]): Tremor (2/6); Corticosterone as an indicator to determine the presence of inhibition ([4]; H295R, Table C3): 0; Cortisol as an indicator to determine the presence of inhibition ([5]; H295R, Table C3): 0
